Measured values: paper PMC8501799, “Constitutive signal bias mediated by the human GHRHR splice variant 1” (Proceedings of the National Academy of Sciences of the …, 2021)

Key:
[1] = target: T1, SV1 (Homo sapiens, UniProt Q02643); experiment: cAMP accumulation; type: cell-based; details: mean ± SEM; for Emax: HEK-293T, HEK293T; for ΔLog (τ/KA): operational model, τ corrected by cell surface expression
T1 sequence (Q02643 90-423 limits assumed): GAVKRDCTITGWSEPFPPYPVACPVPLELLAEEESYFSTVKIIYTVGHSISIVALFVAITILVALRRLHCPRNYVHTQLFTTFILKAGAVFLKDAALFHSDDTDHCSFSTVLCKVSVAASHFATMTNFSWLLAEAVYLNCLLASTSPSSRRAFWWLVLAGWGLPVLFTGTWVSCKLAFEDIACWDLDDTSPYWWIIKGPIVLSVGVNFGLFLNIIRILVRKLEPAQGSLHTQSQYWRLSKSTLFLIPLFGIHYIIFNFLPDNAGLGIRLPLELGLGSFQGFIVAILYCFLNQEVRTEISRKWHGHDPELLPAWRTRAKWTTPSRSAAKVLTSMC
Procedure: (§1) GHRH-stimulated cAMP accumulation was measured by a LANCE Ultra cAMP kit (PerkinElmer). Briefly, HEK293T cells (24 h after transfection with SV1 or GHRHR) or prostate cancer cells were digested by 0.2% (wt/vol) EDTA and washed once with Dulbecco’s phosphate-buffered saline (PBS). Cells were then resuspended with stimulation buffer (Hanks’ balanced salt solution [HBSS] supplemented with 5 mM HEPES, 0.5 mM IBMX, and 0.1% [wt/vol] bovine serum albumin [BSA], pH 7.4) to a density of 0.6 million cells per milliliter and added to 384-well white plates (3,000 cells per well). […] The reaction was stopped by adding 5 μL Eu-cAMP tracer and 5 μL ULight-anti-cAMP. After 1 h RT incubation, TR-FRET signals (excitation: 320 nm, emission: 615 and 665 nm) were measured by an Envision plate reader (PerkinElmer). cAMP concentrations were interpolated by a standard curve.
(§2) All functional study data were analyzed using Prism 7 (GraphPad) and presented as means ± SEM from at least three independent experiments. Concentration-response curves were evaluated with a three-parameter logistic equation. The significance was determined with either two-tailed Student’s t test or one-way ANOVA, and P < 0.05 is considered statistically significant.
(§3) Table S2. Effects of residue mutation or truncation in the ECD of GHRHR on GHRH-induced cAMP […]
(§4) Mutant pEC50 Emax (% WT GHRHR) expression ΔLog (τ/KA) […]
(§5) cAMP accumulation data were analyzed using a three-parameter logistic equation to determine pEC50 and Emax values. pEC50 is the negative logarithm of the molar concentration of agonist that induced half the maximal response. Emax for mutants is expressed as a percentage of the WT GHRHR. Data were analyzed by nonlinear regression using the operational model equation to determine t he logR values (logτ/KA, i.e., logarithm of the transduction ratio). τ is the effi cacy value of the agonist and was corrected by cell surface expression of the receptor. KA is dissociation constant. Changes in transduction ratio (ΔlogR) were calculated to determine the relative effectiveness of the mutants. All values are means ± S.E.M. of at le ast three ind ep en dent experiments (n = 3-5) conducted in quadruplicate. Statistical analysis was carried out by comparing the control responses in the WT GHRHR. **, P < 0.01 and ***, P < 0.001, determined by one-way […]
(§6) Table S4. Effects of residue mutation in the ligand-binding pocket of SV1 on GHRH-induced cAMP […]
(§7) Mutant pEC50 Emax Cell surface expression ΔLog (τ/KA) […]
(§8) effectiveness of the mutants. All values are means ± S.E.M. of four independent experiments (n = 4) conducted in quadruplicate. Statistical analysis was carried out by comparing the control responses in the WT-SV1. *, P < 0.05, **, P < 0.01 and ***, P < 0.001, determined by one-way

[2] = target: T2, WT GHRHR (Homo sapiens, UniProt Q02643); experiment: cAMP accumulation; type: cell-based; details: for Emax: HEK-293T, HEK293T; for ΔLog (τ/KA): operational model, τ corrected by cell surface expression
T2 construct: Comparison of SV1 with full-length or truncated GHRHR that lacks ECD or the first 89 residues (B); expressed in transfected cells; host or cells: HEK293T
T2 sequence (Q02643 23-423): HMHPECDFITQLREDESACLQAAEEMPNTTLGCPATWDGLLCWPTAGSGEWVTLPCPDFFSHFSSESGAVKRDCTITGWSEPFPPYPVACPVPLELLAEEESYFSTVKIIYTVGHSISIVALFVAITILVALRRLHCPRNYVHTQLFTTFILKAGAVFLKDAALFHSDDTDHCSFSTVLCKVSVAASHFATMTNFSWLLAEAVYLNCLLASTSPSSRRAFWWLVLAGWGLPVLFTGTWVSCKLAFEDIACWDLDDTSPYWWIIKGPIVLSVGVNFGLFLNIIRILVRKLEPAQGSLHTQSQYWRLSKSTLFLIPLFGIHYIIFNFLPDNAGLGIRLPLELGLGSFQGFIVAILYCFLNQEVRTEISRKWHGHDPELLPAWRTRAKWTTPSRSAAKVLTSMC
Procedure: as §1, §2, §3, §4, §5, §6, §7, §8

[3] = system: N terminus truncated GHRHRs; experiment: β-arrestin 1/2 recruitment (BRET), truncated receptors; type: cell-based, human; details: HEK293T
Procedure: HEK293T cells were seeded at a density of 30,000 cells per well into 96-well culture plates pretreated with poly-D-lysine hydrobromide. After incubation for 24 h to reach 70% to 80% confluence, the cells were transiently transfected with HA-Flag-GHRHR-Rluc8 or HA-Flag-SV1-Rluc8 and β-arrestin 1/2-Venus at a 1:9 mass ratio using lipofectamine 3000 reagent (Invitrogen) and cultured for another 24 h. Thereafter, cells were washed once and incubated for 30 min at 37 °C with HBSS buffer (pH 7.4) supplemented with 0.1% BSA and 10 mM HEPES. Five micromolars of coelenterazine h (YEASEN Biotechnology) was then added and incubated for 5 min in the dark. The bioluminescence resonance energy transfer (BRET) signals were detected with an Envision plate reader by calculating the ratio of emission at 535 nm over emission at 470 nm.

[4] = Table S4, n = 4 in quadruplicate

CC[C@H](C)[C@H](NC(=O)[C@H](C)NC(=O)[C@H](CC(=O)O)NC(=O)[C@H](C)NC(=O)[C@@H](N)Cc1ccc(O)cc1)C(=O)N[C@@H](Cc1ccccc1)C(=O)N[C@H](C(=O)N[C@@H](CC(N)=O)C(=O)N[C@@H](CO)C(=O)N[C@@H](Cc1ccc(O)cc1)C(=O)N[C@@H](CCCNC(=N)N)C(=O)N[C@@H](CCCCN)C(=O)N[C@H](C(=O)N[C@@H](CC(C)C)C(=O)NCC(=O)N[C@@H](CCC(N)=O)C(=O)N[C@@H](CC(C)C)C(=O)N[C@@H](CO)C(=O)N[C@@H](C)C(=O)N[C@@H](CCCNC(=N)N)C(=O)N[C@@H](CCCCN)C(=O)N[C@@H](CC(C)C)C(=O)N[C@@H](CC(C)C)C(=O)N[C@@H](CCC(N)=O)C(=O)N[C@@H](CC(=O)O)C(=O)N[C@H](C(=O)N[C@@H](CCSC)C(=O)N[C@@H](CO)C(=O)N[C@@H](CCCNC(=N)N)C(=O)N[C@@H](CCC(N)=O)C(=O)N[C@@H](CCC(N)=O)C(=O)NCC(=O)N[C@@H](CCC(=O)O)C(=O)N[C@@H](CO)C(=O)N[C@@H](CC(N)=O)C(=O)N[C@@H](CCC(N)=O)C(=O)N[C@@H](CCC(=O)O)C(=O)N[C@@H](CCCNC(=N)N)C(=O)NCC(=O)N[C@@H](C)C(=O)N[C@@H](CCCNC(=N)N)C(=O)N[C@@H](C)C(=O)N[C@@H](CCCNC(=N)N)C(=O)N[C@@H](CC(C)C)C(N)=O)[C@@H](C)CC)C(C)C)[C@@H](C)O [GHRH, growth hormone–releasing hormone]
Emax [1, 4]: 102 ± 2.28% | Emax ([1]; Table S2, n = 3-5 in quadruplicate): 105 ± 2.2% | ΔLog (τ/KA) ([1]; Table S2, relative to WT GHRHR): -2.98 ± 0.04 | ΔLog (τ/KA) ([1]; Table S4, n = 4): -3.93 ± 0.10 | Emax [2, 4]: 100% | Emax ([2]; Table S2, mean ± SEM, n = 3-5 in quadruplicate): 100 ± 1.81% | ΔLog (τ/KA) ([2]; Table S2, relative to WT GHRHR, mean ± SEM): 0 ± 0.05 | ΔLog (τ/KA) ([2]; Table S4, mean ± SEM, n = 4): 0.00 ± 0.09 | β-arrestin 1/2 recruitments ([3]; deletion made before the first 82 residues, 250 μM GHRH): not affected | β-arrestin 1/2 recruitments ([3]; truncation of the first 89 residues or the entire ECD): enhanced
